The source of these data is patent publication US20110144014A1, “CYTOKINE RECEPTOR MODULATORS AND USES THEREOF” (CENTRE HOSPITALIER UNIVERSITAIRE SAINTE-JUSTINE, priority 2005, published 2011).

Where a SMILES comes first, the peptide text is derived from it. Where no end group is shown, it is not given here. [ ]: non-standard residue; d: D form. Some results are limits rather than exact numbers.

One may read the IC50 as the concentration needed to halve the response being measured.

Test [1] has as its target T1, IGF-1R (Homo sapiens, UniProt P08069). Description: IGF-1 induced proliferation of A549 carcinoma cells (3H-thymidine). Further details: endogenous in cells; host or cells: A549. The test is classed as cell-based. On the procedure:
The proliferation induced by IGF-1 was measured in A549 carcinoma cells in the presence of peptides APG201; APG202 and APG204 and of IGF-1 (10 ng/ml-FIG. 8A) and (1 ng/ml-FIG. 8B) pursuant to the incorporated tritiated thymidine method. The cells were preincubated at 37° C. with the different peptides at different concentrations, namely 10^−7, 10^−6 and 10^−5M. The cells were then incubated with IGF-1 (10 ng/ml or 1 ng/ml) for 24 hours and contacted with ^3H-Thymidine for 24 hours, washed, and lysed. Radioactivity levels were measured with a scintillation counter.
Target sequence in this assay (P08069 31-736 limits assumed): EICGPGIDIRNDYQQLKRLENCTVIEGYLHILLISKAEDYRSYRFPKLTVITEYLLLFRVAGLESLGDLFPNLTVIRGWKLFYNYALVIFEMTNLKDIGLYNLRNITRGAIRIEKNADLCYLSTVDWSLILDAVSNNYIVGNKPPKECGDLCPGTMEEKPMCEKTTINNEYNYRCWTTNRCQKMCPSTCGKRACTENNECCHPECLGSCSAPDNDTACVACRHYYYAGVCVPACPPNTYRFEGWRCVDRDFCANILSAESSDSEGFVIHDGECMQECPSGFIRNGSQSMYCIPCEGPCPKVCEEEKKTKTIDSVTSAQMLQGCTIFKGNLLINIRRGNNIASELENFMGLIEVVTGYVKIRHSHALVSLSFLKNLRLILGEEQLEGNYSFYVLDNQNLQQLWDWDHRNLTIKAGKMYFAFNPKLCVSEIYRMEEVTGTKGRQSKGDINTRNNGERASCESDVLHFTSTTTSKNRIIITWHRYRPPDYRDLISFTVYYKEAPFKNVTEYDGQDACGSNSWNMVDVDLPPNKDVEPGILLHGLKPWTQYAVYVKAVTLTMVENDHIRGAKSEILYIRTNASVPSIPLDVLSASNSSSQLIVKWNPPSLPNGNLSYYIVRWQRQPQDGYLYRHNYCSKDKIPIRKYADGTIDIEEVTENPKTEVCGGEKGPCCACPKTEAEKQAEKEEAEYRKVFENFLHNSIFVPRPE
Target sequence in this assay (P08069 741-1367 limits assumed): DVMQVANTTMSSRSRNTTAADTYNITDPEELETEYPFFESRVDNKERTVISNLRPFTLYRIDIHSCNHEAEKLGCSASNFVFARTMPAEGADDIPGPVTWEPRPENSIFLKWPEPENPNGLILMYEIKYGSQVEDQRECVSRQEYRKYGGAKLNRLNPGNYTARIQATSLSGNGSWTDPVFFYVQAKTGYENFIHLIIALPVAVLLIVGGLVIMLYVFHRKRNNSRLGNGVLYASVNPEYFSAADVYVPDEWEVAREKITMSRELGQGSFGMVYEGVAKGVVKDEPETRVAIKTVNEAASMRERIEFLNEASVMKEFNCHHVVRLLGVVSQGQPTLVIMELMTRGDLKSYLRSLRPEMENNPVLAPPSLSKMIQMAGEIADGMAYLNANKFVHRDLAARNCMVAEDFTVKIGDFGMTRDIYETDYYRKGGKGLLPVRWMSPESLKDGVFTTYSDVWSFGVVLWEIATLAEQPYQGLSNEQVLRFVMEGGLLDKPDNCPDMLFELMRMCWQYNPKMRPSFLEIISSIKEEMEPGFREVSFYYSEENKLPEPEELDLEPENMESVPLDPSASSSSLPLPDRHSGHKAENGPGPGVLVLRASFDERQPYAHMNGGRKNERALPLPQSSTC

Test [2] addresses T1, IGF-1R. Description: IGF-1 induced proliferation of MCF-7 breast carcinoma cells (3H-thymidine). The settings on record: for Emax / inhibition: MCF7; for inhibition: read-out: efficacy, inhibition of MCF-7 proliferation. Type of test: cell-based. Further details: MCF-7 breast carcinoma cells; endogenous in cells; host or cells: MCF-7. Here is the method:
We also tested the effect IGF-1R antagonist peptides on IGF-1 induced proliferation in other cancer cell types (MCF-7 breast carcinoma cells, HepG2 hepatocarcinoma cells, and MDA-MB-231 breast adenocarcinoma cells). Different cancer cells were pre-incubated (45 min.) with different concentrations of peptides prior to stimulation with IGF-1 (50 ng/ml) (37° C.) for 24 hours; fetal calf serum was omitted 24 hours prior to stimulation with IGF-1 to avoid proliferative effects by other mitotic agents. ^3H-thymidine (1 μCi/ml) was then added for 24 hours, after which cells were washed three times with 5% cold TCA and lysed with 0.1N NaOH/0.1% Triton X-100. Radioactivity was measured with a scintillation counter. Experiments were repeated 3 times in duplicates (FIG. 15). […]
Target sequence in this assay (P08069 31-736 limits assumed): as the sequence (P08069 31-736 limits assumed) above
Target sequence in this assay (P08069 741-1367 limits assumed): as the sequence (P08069 741-1367 limits assumed) above

Test [3] deals with T1, IGF-1R. The test is described as follows: IGF-1 induced proliferation of MDA-MB-231 breast adenocarcinoma cells (3H-thymidine). The test is classed as cell-based. On the set-up: MDA-MB-231 breast adenocarcinoma cells; endogenous in cells; host or cells: MDA-MB-231. The note with it: for EC50: read-out: EC50, in vitro cell proliferation assay; for Emax: MDA-MB-231, read-out: Emax, in vitro cell proliferation assay. On the procedure: (§1) We also tested the effect IGF-1R antagonist peptides on IGF-1 induced proliferation in other cancer cell types (MCF-7 breast carcinoma cells, HepG2 hepatocarcinoma cells, and MDA-MB-231 breast adenocarcinoma cells). Different cancer cells were pre-incubated (45 min.) with different concentrations of peptides prior to stimulation with IGF-1 (50 ng/ml) (37° C.) for 24 hours; fetal calf serum was omitted 24 hours prior to stimulation with IGF-1 to avoid proliferative effects by other mitotic agents. ^3H-thymidine (1 μCi/ml) was then added for 24 hours, after which cells were washed three times with 5% cold TCA and lysed with 0.1N NaOH/0.1% Triton X-100. Radioactivity was measured with a scintillation counter. Experiments were repeated 3 times in duplicates (FIG. 15).
Target sequence in this assay (P08069 31-736 limits assumed): as the sequence (P08069 31-736 limits assumed) above
Target sequence in this assay (P08069 741-1367 limits assumed): as the sequence (P08069 741-1367 limits assumed) above

The subject of test [4] is VEGFR2 (Flk-1). The test is described as follows: VEGF induced proliferation of microvascular endothelial cells (3H-thymidine). The note with it: VEGF 2 ng/ml. The test is classed as cell-based, porcine. On the procedure: (§2) To determine the efficient and non-cytotoxic concentration of VEGF to use in the assay, a dose-response curve of VEGF was generated in two types of cells, namely microvascular endothelial cells and pulmonary artery endothelial cells (PAEC) that had been transfected with the Flk-1 gene. The proliferation was then measured in those two types of cells in the presence of peptides 2.1, 2.2 and 2.3 and of VEGF (2 ng/ml) pursuant to the incorporated tritiated thymidine method. The cells were preincubated at 37° C. with the different peptides at different concentrations. They were incubated with VEGF (2 ng/ml) for 24 hours. The cells were contacted with ^3H-Thymidine for 24 hours, washed and lysed. The radioactivity was measured with a scintillation counter.

In test [5] the target is T2, VEGFR2 (Flk-1) (Homo sapiens, UniProt P35968).
T2 construct: expressed in transfected cells; host or cells: pulmonary artery endothelial cells (PAEC)
Description: VEGF induced proliferation of PAEC transfected with the Flk-1 gene (3H-thymidine). Type of test: cell-based. The note with it: VEGF 2 ng/ml. On the procedure: as §2

Test [6] concerns neovascularization in rat retinas. The test is described as follows: Ischemic retinopathy model. The settings on record: rat pups, 80% O2 then normoxia; intravitreal, 10 μM final. Type of test: in vivo. On the procedure: The efficiency of the selected peptides was verified in vivo in a ischemic retinopathy model, a phenomena highly dependent on VEGF activation. Rat pups were exposed to 80% O2 followed by a period of normoxia (21% O2). The peptides were injected at a final concentration of 10 μM in the vitreous body. The retinas were then retrieved, colored with the ADPase method and mounted on slides. Photographs of the retinas were taken with a microscope linked to a computer and the vascular density was evaluated with the Imagepro software.

In test [7] the target is T3, IGF-1R (Rattus norvegicus, UniProt P24062).
T3 construct: from tissue; host or cells: aorta
T3 sequence (P24062 31-1370): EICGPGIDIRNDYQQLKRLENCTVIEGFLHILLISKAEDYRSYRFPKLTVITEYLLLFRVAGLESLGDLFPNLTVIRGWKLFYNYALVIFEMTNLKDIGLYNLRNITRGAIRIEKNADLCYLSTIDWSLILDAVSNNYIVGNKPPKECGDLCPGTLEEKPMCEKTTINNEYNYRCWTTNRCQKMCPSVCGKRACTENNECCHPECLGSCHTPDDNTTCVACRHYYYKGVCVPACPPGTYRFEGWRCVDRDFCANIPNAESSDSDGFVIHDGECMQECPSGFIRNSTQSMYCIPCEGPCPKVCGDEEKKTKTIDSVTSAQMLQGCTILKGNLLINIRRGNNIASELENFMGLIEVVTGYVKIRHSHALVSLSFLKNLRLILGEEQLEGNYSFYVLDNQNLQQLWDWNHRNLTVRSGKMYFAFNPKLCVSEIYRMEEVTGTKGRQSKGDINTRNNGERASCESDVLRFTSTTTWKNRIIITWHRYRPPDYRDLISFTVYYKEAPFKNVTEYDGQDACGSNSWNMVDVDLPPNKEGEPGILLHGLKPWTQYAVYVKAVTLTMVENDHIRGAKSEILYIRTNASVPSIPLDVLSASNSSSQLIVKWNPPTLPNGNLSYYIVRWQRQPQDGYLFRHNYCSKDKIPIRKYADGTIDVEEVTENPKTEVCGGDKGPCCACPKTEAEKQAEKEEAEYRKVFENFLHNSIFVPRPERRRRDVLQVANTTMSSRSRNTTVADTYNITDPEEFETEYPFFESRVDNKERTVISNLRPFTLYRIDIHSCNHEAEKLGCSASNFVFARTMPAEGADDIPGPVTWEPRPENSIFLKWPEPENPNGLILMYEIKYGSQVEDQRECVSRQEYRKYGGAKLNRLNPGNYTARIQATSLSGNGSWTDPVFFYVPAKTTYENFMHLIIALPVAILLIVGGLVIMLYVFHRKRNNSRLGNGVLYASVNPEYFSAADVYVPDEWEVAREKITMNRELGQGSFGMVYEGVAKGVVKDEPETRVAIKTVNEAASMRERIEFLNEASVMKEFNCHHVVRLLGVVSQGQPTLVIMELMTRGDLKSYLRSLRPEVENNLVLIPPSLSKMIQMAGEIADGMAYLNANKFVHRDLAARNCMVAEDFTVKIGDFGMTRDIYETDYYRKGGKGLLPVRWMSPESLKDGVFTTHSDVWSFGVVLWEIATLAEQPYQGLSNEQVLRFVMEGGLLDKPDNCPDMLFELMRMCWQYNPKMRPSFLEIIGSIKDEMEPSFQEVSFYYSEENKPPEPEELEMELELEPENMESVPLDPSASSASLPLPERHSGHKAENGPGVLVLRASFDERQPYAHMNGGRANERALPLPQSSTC
The test is described as follows: Ex vivo IGF-1-induced vasorelaxation of rat aorta. The note with it: IGF-1 25 ng/ml; phenylephrine pre-constriction; read-out: Emax, inhibition of ex vivo IGF-1-induced vasorelaxation of rat aorta. On the procedure:
Aortas were first incubated with different concentrations of peptides and phenylephrine to induce aorta constriction. IGF-1 (25 ng/ml) was then added to induce vasorelaxation. The results are expressed relative to a control aorta not incubated with the peptides. Vascular diameter was measured using a digital image analyzer. Vascular diameter was recorded before and after topical application of pre-constricting agent. After stabilization of the preparation, the ligand (IGF-1, 25 ng/ml) was added until stable vasodilation was detected. Peptides were subsequently added at different concentrations from 10^−8 to 10^−6 M. Reversal of vasodilatation was visualized and measured as described, for example, by Hou et al. (Am. J. Physiol. Regul. Integr. Comp. Physiol. 284:R928-R935 (2003)), Hou et al. (Stroke 31:516-524; discussion 525 (2000)), and Hou et al. (Am. J. Physiol. Regul. Integr. Comp. Physiol. 281:R391-R400 (2001)). Triplicate measurements were conducted on 2 animals.

For test [8], the target named is T1, IGF-1R. Description: IGF-1-induced proliferation of NIH3T3 cells transfected with human IGF-1R cDNA (3H-thymidine). Type of test: cell-based. Further details: expressed in transfected cells; host or cells: NIH3T3. The settings on record: NIH3T3-IGF-1R cells; IGF-1 50 ng/ml. On the procedure:
Derivatives of APG-203 and APG-206 peptides were truncated to determine peptide regions important for activity. Peptides were assayed for efficacy and potency with an ^3H-thymidine incorporation assay. In short, the ^3H-thymidine incorporation proliferation assay was performed in NIH3T3 cells transfected with human IGF-1R cDNA in presence of IGF-1 50 ng/ml and different concentrations of peptides.
Target sequence in this assay (P08069 31-1367): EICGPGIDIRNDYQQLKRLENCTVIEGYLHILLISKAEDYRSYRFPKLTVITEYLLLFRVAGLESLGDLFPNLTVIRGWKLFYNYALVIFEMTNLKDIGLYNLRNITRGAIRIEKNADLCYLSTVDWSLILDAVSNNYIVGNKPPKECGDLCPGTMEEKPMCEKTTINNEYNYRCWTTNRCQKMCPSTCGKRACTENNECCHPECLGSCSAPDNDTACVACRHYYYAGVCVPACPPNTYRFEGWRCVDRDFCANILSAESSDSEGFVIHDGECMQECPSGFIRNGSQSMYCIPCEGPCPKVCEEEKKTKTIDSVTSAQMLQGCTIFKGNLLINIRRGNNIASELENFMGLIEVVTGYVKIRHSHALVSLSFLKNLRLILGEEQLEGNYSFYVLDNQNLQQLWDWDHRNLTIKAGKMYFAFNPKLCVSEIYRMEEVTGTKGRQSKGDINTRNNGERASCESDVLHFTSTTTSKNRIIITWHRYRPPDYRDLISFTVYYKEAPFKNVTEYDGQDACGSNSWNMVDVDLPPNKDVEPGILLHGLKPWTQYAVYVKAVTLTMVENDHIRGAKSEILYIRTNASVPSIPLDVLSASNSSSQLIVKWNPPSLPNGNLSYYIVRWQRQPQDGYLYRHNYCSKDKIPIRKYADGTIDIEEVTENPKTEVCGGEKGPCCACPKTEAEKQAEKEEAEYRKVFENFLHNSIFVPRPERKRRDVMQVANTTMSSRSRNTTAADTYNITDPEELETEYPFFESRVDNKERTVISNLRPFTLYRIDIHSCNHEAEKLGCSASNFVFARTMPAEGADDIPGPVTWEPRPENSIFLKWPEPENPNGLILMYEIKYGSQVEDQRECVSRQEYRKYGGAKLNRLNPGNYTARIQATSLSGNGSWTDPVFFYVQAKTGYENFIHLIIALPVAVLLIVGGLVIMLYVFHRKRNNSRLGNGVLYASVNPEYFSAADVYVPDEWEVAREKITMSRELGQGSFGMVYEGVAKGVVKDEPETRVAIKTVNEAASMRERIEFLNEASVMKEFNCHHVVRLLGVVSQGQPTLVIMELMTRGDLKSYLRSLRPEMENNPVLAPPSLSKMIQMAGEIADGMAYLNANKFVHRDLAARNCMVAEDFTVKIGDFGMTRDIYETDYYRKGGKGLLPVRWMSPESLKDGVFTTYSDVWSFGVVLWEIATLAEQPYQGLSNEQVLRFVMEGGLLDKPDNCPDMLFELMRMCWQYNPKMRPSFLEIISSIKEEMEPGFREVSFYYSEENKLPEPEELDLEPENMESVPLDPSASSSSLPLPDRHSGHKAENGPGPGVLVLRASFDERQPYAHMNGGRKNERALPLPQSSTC

Test [9] has as its target T1, IGF-1R. Description: IGF-1-induced tyrosine autophosphorylation of IGF-1R (Western Blot). Type of test: cell-based. The settings on record: peptides 10^−6M, 45 min; IGF-1 50 ng/ml; read-out: inhibition of IGF-1-induced phosphorylation. On the procedure: Cells were incubated with anti-IGF-1R peptides (10^−6M) for 45 minutes and with IGF-1 at 50 ng/ml for either 15 minutes or 5 minutes. Western Blots (phosphorylated tyrosine antibody and IGF-1R antibody) were performed in non-denaturing conditions on total cell lysates (FIG. 17).
A general note: In western blotting, separated proteins are transferred to a membrane and probed.
Target sequence in this assay (P08069 31-1367, species assumed): as the sequence (P08069 31-1367) above

Test [10] addresses T1, IGF-1R. Description: IGF-1 induced proliferation of HepG2 hepatocarcinoma cells (3H-thymidine). The test is classed as cell-based. On the set-up: HepG2 hepatocarcinoma cells; endogenous in cells; host or cells: HepG2. The note with it: for Emax: read-out: Emax, in vitro cell proliferation assay. Here is the method:
as §1
Target sequence in this assay (P08069 31-736 limits assumed): as the sequence (P08069 31-736 limits assumed) above
Target sequence in this assay (P08069 741-1367 limits assumed): as the sequence (P08069 741-1367 limits assumed) above

[11] abbreviates: A549, IGF-1 10 ng/ml or 1 ng/ml.
The mark [12] stands for this setting: MCF-7, IGF-1 50 ng/ml, read-out: Emax, in vitro cell proliferation assay.
Where [13] appears, read: MCF-7 (breast cancer) cells, Table 5, read-out: Emax.

For `CC(C)C[C@@H](NC(=O)[C@H](N)CO)C(=O)N[C@H](Cc1ccccc1)C(=O)N[C@@H](C(=O)N1CCC[C@@H]1C(=O)N[C@H](CCCNC(=N)N)C(=O)N1CCC[C@@H]1C(=O)N[C@H](CCC(=O)O)C(=O)N[C@H](CCCNC(=N)N)C(=O)N[C@H](CCCCN)C(=O)O)C(C)C` [APG-201] (H-[dS][dL][dF][dV][dP][dR][dP][dE][dR][dK]-OH; N-terminus and C-terminus assumed), the EC50 on IGF-1R [1] stood at 1000 nM; on IGF-1R [3] (MB-MDA-231, IGF-1 50 ng/ml), 0.1 nM. In addition, the IGF-1 induced proliferation entry on IGF-1R [1] (setting [11]) is given as “completely abrogated”. Besides, the Emax worked out at 20% on IGF-1R [2] (setting [12]) and 100% on IGF-1R [3] (MB-MDA-231, IGF-1 50 ng/ml). Further, on IGF-1R [3] (ER insensitive cells), the “potency in MDA-MB-231” value was “nanomolar potencies”.
Consider `CC(C)C[C@@H](NC(=O)[C@H](NC(=O)[C@@H](CC(=O)O)NC(=O)[C@@H](CO)NC(=O)[C@H](N)CCC(=O)O)C(C)C)C(=O)N[C@H](Cc1c[nH]cn1)C(=O)N[C@H](Cc1ccccc1)C(=O)N[C@@H](C(=O)N[C@H](CO)C(=O)N[C@@H](C(=O)O)[C@H](C)O)[C@H](C)O` [APG-202] (H-[dE][dS][dD][dV][dL][dH][dF][dT][dS][dT]-OH; N-terminus and C-terminus assumed), for which, at IGF-1R [1] (setting [11]), the IGF-1 induced proliferation entry is reported as “completely abrogated”. Moreover, at IGF-1R [1] (A549, IGF-1 10 ng/ml or 1 ng/ml, read-out: EC50, IGF-1 induced proliferation), the EC50 was determined as 10 nM. For the same compound, the Emax at IGF-1R [2] (setting [12]) came to 20%. Also, the “EC50, in vitro cell proliferation assay” value on IGF-1R [3] (MB-MDA-231, IGF-1 50 ng/ml) is “Not active”.
Regarding `CC(C)C[C@@H](NC(=O)[C@@H](CCCNC(=N)N)NC(=O)[C@H](NC(=O)[C@@H](CCCNC(=N)N)NC(=O)[C@@H](CCC(=O)O)NC(=O)CNC(=O)[C@H](NC(=O)[C@H](NC(=O)[C@@H](C)NC(=O)[C@H](N)CCC(=O)O)[C@H](C)O)C(C)C)C(C)C)C(=O)O` [Peptide 2.2] (H-[dE][dA][dT][dV]G[dE][dR][dV][dR][dL]-OH; N-terminus and C-terminus assumed), the VEGF induced proliferation result in the test with VEGFR2 (Flk-1) [4] is listed as “completely abrogated”. Also, the EC50 on VEGFR2 (Flk-1) [5] was 9000 nM. Besides, the induced neovascularization result in [6] is “most effective inhibitor of neovascularization”.
Regarding ENFLHLLLA [APG-205], the Emax was found to be 25% on IGF-1R [7]; 60% at IGF-1R [2] (setting [12]); 100% at IGF-1R [3] (MB-MDA-231, IGF-1 50 ng/ml). The inhibition at IGF-1R [2] (IGF-1 50 ng/ml) was not above 90%.
In the case of ERTVLSNL [APG-206.7], the Emax on IGF-1R [8] came out at 100%; on IGF-1R [2] (setting [13]), 90%.
As to IRKYADGTI [APG-204], the Emax at IGF-1R [7] is 25%; on IGF-1R [2] (setting [12]) it was 90%; on IGF-1R [3] (MB-MDA-231, IGF-1 50 ng/ml), 100%. In addition, at IGF-1R [9], the inhibition at 1 µM stood at 30%. Moreover, the inhibition on IGF-1R [2] (IGF-1 50 ng/ml) is not above 90%.
Take KERTVISNLR [APG-206]: the Emax on IGF-1R [7] stood at 75%; at IGF-1R [10] (HepG2, IGF-1 50 ng/ml), 100%; on IGF-1R [2] (setting [12]), 60%. For the same compound, the inhibition at 1 µM at IGF-1R [9] is more than 70%. In addition, the inhibition at IGF-1R [2] (IGF-1 50 ng/ml) was not above 90%.
Turning to KERTVLS [APG-206.5, KERTVLS], the Emax at IGF-1R [8] was 75%; on IGF-1R [2] (setting [13]) it was 100%.
Consider RTNASVPSI [APG-203], for which the Emax on IGF-1R [7] turned out to be 50%; at IGF-1R [10] (HepG2, IGF-1 50 ng/ml) it was 100%; at IGF-1R [2] (setting [12]), 45%; at IGF-1R [3] (MB-MDA-231, IGF-1 50 ng/ml) it was 100%. The “efficacy, inhibition of HepG2 proliferation” value on IGF-1R [10] was 50%. In addition, the EC50 was less than 0.1 nM on IGF-1R [10] (HepG2, IGF-1 50 ng/ml, read-out: EC50, in vitro cell proliferation assay); 0.1 to 60 nM on IGF-1R [2] (IGF-1 50 ng/ml, read-out: potency, inhibition of MCF-7 proliferation); 0.1 nM at IGF-1R [3] (MB-MDA-231, IGF-1 50 ng/ml). Besides, at IGF-1R [2] (IGF-1 50 ng/ml), the inhibition is not above 90%.
As for TVLSNL [APG-206.9, TVLSNL], on IGF-1R [8], the Emax stood at 90% and it took 20 nM to reach half-maximal inhibition (IC50).
